Data: ChEMBL document CHEMBL1201862, “PubChem BioAssay data set” (2004)
The source made the active and inactive calls. Rule as the data show it, for most assays here: actives have a measured EC50 and inactives only a lower limit.

Key:
[1] = HEp-2 cell cytotoxicity, dose response, cytotoxicity control for RSV inhibitor project, HTS (AID 2410); format: functional; settings: human respiratory syncytial virus
[2] = molecular target: T1, Protein skinhead-1 (Caenorhabditis elegans, UniProt P34707); format: functional
T1 sequence (P34707 whole entry): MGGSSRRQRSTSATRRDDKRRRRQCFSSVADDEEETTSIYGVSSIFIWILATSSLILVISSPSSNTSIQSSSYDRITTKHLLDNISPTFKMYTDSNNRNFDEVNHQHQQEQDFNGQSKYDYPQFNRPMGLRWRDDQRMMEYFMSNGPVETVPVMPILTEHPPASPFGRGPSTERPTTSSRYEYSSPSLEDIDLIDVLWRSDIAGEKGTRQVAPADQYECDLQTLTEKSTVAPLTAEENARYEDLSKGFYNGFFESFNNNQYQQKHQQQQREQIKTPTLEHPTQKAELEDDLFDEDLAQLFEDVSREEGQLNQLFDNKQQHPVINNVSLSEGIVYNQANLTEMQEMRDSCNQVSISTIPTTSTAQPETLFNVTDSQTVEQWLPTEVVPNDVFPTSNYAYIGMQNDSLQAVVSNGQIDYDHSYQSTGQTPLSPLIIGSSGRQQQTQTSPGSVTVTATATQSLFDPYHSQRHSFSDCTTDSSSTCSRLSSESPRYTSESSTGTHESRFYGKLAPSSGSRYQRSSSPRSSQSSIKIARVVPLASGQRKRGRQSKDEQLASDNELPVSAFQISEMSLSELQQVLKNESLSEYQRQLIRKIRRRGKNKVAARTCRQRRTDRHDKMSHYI

[3] = molecular target: T2, RNA-binding protein pos-1 (Caenorhabditis elegans, UniProt G5EF15); assay: inhibitors of POS-1/mex-3 RNA binding, dose response, biochemical, fluorescence polarization (AID 1964);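 also: purified POS-1 fused to maltose binding protein made in E. coli; potency of compounds blocking POS-1 binding to fluorescent RNA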
T2 sequence (G5EF15 whole entry): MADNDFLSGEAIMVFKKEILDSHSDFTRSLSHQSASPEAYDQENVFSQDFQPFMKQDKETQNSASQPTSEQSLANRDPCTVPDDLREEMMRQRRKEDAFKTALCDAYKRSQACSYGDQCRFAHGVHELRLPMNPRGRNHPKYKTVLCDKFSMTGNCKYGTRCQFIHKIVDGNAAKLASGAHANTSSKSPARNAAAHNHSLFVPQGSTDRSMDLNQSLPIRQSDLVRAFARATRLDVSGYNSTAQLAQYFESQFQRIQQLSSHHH

[4] = molecular target: T3, Zinc finger protein mex-5 (Caenorhabditis elegans, UniProt Q9XUB2); assay: MEX-5/TCR-2 RNA interaction inhibitors, dose response, biochemical, C. elegans, fluorescence polarization (AID 1960)
T3 sequence (Q9XUB2 whole entry): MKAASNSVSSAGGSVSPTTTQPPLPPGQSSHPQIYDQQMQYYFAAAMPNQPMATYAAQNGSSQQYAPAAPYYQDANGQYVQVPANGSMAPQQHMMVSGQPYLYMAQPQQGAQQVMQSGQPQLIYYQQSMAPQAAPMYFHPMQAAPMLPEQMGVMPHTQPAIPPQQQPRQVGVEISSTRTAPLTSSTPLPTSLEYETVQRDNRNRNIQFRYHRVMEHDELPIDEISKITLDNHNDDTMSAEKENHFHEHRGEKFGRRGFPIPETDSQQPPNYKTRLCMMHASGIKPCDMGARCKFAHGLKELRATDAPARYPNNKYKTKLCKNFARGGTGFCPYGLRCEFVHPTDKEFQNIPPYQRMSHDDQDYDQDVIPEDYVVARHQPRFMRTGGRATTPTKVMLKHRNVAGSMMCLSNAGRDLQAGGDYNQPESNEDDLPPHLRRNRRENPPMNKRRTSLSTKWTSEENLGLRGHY

[5] = molecular target: Luciferin 4-monooxygenase (Photinus pyralis, UniProt P08659); assay: firefly luciferase enzyme inhibitors, dose response, biochemical, luminescence (AID 1891)
[6] = Luminescence Cell-Based Dose Confirmation HTS to Identify Inhibitors of Platelet Dense Granule Release. [Related pubchem assays: 1663 (Primary HTS), 1678 (Summary of Project)]; format: functional
[7] = molecular target: Cytochrome P450 2C9 (Homo sapiens, UniProt P11712)
[8] = Luminescence Cell-Based Dose Confirmation HTS to Identify Activators of 5'UTR Stem-Loop Driven Alpha-Synuclein mRNA Translation in H4 Neuroglioblastoma Cells. [Related pubchem assays: 1829 (Project Summary), 1814 (Primary HTS)]; format: functional
[9] = Luminescence Cell-Based Dose Response HTS to Identify Activators of Luciferase Translation or Activity in H4 […] Cells. [Related pubchem assays: 1829 (Project Summary), 1814 (Primary HTS)]; format: functional
[10] = system: H4; assay: Luminescence Cell-Based Dose Response HTS to Identify Activators of 5'UTR Stem-Loop Driven Prion Protein mRNA Translation in H4 Neuroglioblastoma Cells. [Related pubchem assays: 1829 (Project Summary), 1814 (Primary HTS)]; format: functional; settings: Homo sapiens
[11] = inhibitors of firefly luciferase expression or activity, dose response, H4 neuroglioma cells, luminescence (AID 1990); format: functional, cell-based
[12] = Luminescence Cell-Based Dose Response HTS to Identify Inhibitors of 5'UTR Stem-Loop Driven Prion Protein mRNA Translation in H4 Neuroglioblastoma Cells. [Related pubchem assays: 1827 (Project Summary), 1813 (Primary HTS)]; format: functional
[13] = inhibitors of SNCA 5'UTR-driven reporter translation, confirmation, H4 neuroglioma cells, luminescence (AID 1988); format: functional, cell-based
[14] = Luminescence Cell-Based Dose Retest to Confirm Inhibitors of Cancer Stem Cells. [Related pubchem assays (depositor defined):AID2717, AID2721]; format: functional; settings: Homo sapiens

Luciferin 4-monooxygenase, sequence (P08659 whole entry): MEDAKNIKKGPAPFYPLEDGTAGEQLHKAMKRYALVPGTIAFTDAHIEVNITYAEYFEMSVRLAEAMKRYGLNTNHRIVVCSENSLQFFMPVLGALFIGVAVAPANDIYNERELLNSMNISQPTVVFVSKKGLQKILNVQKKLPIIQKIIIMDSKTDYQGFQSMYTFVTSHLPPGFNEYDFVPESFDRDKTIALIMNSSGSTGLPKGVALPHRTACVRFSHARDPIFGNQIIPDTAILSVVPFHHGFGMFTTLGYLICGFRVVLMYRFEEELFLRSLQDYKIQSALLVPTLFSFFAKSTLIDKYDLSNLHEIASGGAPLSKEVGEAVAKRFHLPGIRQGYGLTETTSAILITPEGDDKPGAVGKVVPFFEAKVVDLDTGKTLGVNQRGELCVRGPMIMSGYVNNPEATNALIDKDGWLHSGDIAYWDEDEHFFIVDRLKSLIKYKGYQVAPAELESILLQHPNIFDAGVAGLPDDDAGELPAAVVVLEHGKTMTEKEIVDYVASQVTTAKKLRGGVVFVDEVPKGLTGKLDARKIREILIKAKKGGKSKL
Cytochrome P450 2C9, sequence (P11712 whole entry): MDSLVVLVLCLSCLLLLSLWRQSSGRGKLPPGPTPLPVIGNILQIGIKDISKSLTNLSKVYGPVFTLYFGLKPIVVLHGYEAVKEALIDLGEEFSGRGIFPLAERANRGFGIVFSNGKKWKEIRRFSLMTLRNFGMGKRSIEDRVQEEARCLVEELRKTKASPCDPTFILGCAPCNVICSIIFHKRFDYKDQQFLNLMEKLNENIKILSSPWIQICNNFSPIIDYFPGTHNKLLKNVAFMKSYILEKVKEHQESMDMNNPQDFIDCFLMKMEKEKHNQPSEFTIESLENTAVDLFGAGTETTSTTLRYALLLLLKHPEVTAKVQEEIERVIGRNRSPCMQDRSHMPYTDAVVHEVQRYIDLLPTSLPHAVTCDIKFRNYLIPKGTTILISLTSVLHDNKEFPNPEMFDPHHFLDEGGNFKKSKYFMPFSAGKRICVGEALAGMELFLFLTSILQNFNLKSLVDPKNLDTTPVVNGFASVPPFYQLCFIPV

For `CSc1ccc(-c2cc(=O)c3ccccc3o2)cc1`, the CC50 [1] was 18.7 µM (active) and the IC50 [2] was 23.9 µM (active).

In the case of `Cc1onc(-c2ccccc2Cl)c1C(=O)NCCn1ccc2ccccc21`, the IC50 [2] is reported as > 100 µM (inactive).

For `COC(=O)CNC(=O)C1Nc2ccc(OC(F)(F)F)cc2C2C=CCC12` (centres undefined), the EC50 [3] was > 300 µM (not active) and the EC50 [4] was > 300 µM (not active).

With `Brc1ccc(-c2nnc(-c3cccnc3)o2)cc1` the IC50 [2] was 25.1 µM (active).

For `CCCCOC(=O)CCc1c(C)nc(O)c(C#N)c1C`, the EC50 [5] was > 112 µM (not active), the EC50 [6] was 6.36 µM (active) and the AC50 [7] was 0.282 µM (inconclusive).

With `Cc1c(OCc2ccccc2)c(=O)ccn1Cc1ccccc1` the EC50 [8] was 13.4 µM (active), the EC50 [9] was 9.62 µM (active) and the EC50 [10] was 8.26 µM (active).

With `Cc1nnc(O)nc1N/N=C/c1ccc(O)c([N+](=O)[O-])c1` the EC50 [3] was 169 µM (active) and the EC50 [4] was 65.5 µM (active).

With `Cc1ccc(-n2cnc3c(sc4nccc(N(C)C)c43)c2=O)cc1` the EC50 [8] was > 120 µM (not active), the EC50 [9] was 75.7 µM (active) and the EC50 [10] was 15.6 µM (active).

In the case of `N#CC(=Cc1cccs1)c1nc(-c2ccc(Cl)cc2)cs1`, the IC50 [2] is reported as > 100 µM (inactive).

In the case of `CN(C)c1ccc(-n2cc3c(=O)n(C)c(=O)n(C)c3c2)cc1`, the EC50 [8] is reported as 45 µM (active), the EC50 [9] is reported as 21 µM (active) and the EC50 [10] is reported as 42.3 µM (active).

For `Cc1ccc(-c2csc(NC(CO)c3nc4ccccc4n3CCOCCO)n2)cc1` (centres undefined), the EC50 [8] was > 120 µM (not active), the EC50 [9] was > 120 µM (not active) and the EC50 [10] was 17.3 µM (active).

For `Cc1ccc(NC(=O)CC2C(=O)NC3CCCCC3N2C(=O)c2ccc(F)cc2)cc1C` (centres undefined), the EC50 [5] was > 112 µM (not active) and the EC50 [6] was > 112 µM (not active).

For `COc1ncnc2c1N=C1CC(C)(C)CC(NCCC(=O)O)=C1S2`, the EC50 [3] was > 300 µM (not active) and the EC50 [4] was 13.8 µM (active).

With `COCCNC(=O)C1Nc2ccc(C(F)(F)F)cc2C2C=CCC12` (centres undefined) the EC50 [3] was > 300 µM (not active) and the EC50 [4] was > 300 µM (not active).

In the case of `Cc1cccc(N=Nc2c(O)[nH]c3ccc(Br)cc23)c1`, the EC50 [3] is reported as 68.3 µM (active) and the EC50 [4] is reported as 26.9 µM (inconclusive).

In the case of `O=C(Cn1c2ccccc2c(=O)c2ccccc21)N/N=C/c1ccc(N2CCCC2)c([N+](=O)[O-])c1`, the EC50 [11] is reported as 5.67 µM (active), the EC50 [12] is reported as 7.94 µM (active) and the EC50 [13] is reported as 5.08 µM (active). For the same compound, the EC50 [5] was > 112 µM (not active), the EC50 [6] was 27.4 µM (active) and the AC50 [14] was 0.483 µM (active).

With `N#CCCN(C(=O)COC(=O)CCc1c[nH]c2ccccc12)c1ccc(F)cc1` the EC50 [5] was > 112 µM (not active) and the EC50 [6] was 45.7 µM (active).

With `Cc1cc(Nc2cccc([N+](=O)[O-])c2)c2cccc(C)c2n1` the EC50 [5] was > 112 µM (not active) and the EC50 [6] was > 112 µM (not active).

In the case of `N=c1nc(SCCC(=O)O)ss1`, the EC50 [11] is reported as 13.4 µM (active), the EC50 [12] is reported as 15.8 µM (active) and the EC50 [13] is reported as 14 µM (active).

In the case of `Cc1nnc2ccc(-c3ccc(NC(=O)c4ccco4)cc3)nn12`, the EC50 [8] is reported as 18.5 µM (active), the EC50 [9] is reported as 14.4 µM (active) and the EC50 [10] is reported as > 120 µM (not active).

With `Cc1n[nH]c(S/C(C(=O)O)=C2/C(=O)Nc3ccccc32)n1` the EC50 [3] was > 300 µM (not active), the EC50 [5] was 15.9 µM (active) and the EC50 [6] was > 112 µM (not active).

With `CC(=O)c1sc(N/N=C2\CC3CC2C(C)C3(C)C)nc1C` (centres undefined) the EC50 [8] was 0.411 µM (active), the EC50 [9] was 12.9 µM (active) and the EC50 [10] was 11 µM (active).

For `CC1(C)Cc2c(cnn2-c2cccc(F)c2)C(NC(=O)CSc2ccccn2)C1` (centres undefined), the EC50 [3] was > 300 µM (not active) and the EC50 [4] was > 150 µM (not active).

With `Cc1ccc(Nc2ccc([N+](=O)[O-])ccc2=O)cc1` the EC50 [3] was > 300 µM (not active) and the EC50 [4] was > 300 µM (not active).

In the case of `Sc1nnc(Cc2sc(-c3ccccc3)nc2-c2ccccc2)o1`, the EC50 [11] is reported as 18.9 µM (active), the EC50 [12] is reported as > 120 µM (not active) and the EC50 [13] is reported as > 120 µM (not active).

With `O=C(Nc1ccc(Cl)cn1)c1ccccc1F` the IC50 [2] was 16.3 µM (active).

In the case of `FC(F)(F)c1cc(Oc2ccccc2Cl)nc(-c2ccccn2)n1`, the EC50 [11] is reported as 7.86 µM (active), the EC50 [12] is reported as > 120 µM (not active) and the EC50 [13] is reported as 6.37 µM (active).

For `O=C(NCc1ccc(Cl)cc1)c1ccc(-c2ccc(F)c(F)c2)c2ccoc12`, the IC50 [2] was > 100 µM (inactive).

For `COc1ccc(NC(=O)c2cccs2)cc1`, the EC50 [5] was 17.4 µM (active) and the EC50 [6] was 18.6 µM (active).

In the case of `Cc1n[nH]c(O)c1N=Nc1ccc(S(N)(=O)=O)cc1`, the EC50 [3] is reported as 78.9 µM (active) and the EC50 [4] is reported as 9.43 µM (inconclusive).

In the case of `Cc1cccc(NC(=O)NCCN2CCCCC2)c1`, the IC50 [2] is reported as > 100 µM (inactive).

For `Cc1cc(N2CCN(S(=O)(=O)c3ccc(C)c(C)c3)CC2)c2ccccc2n1`, the EC50 [11] was > 120 µM (not active), the EC50 [12] was 50 µM (active) and the EC50 [13] was > 120 µM (not active).

In the case of `O=C(Nc1ccc(Cl)cn1)c1cc2c(s1)-c1ccccc1OC2`, the IC50 [2] is reported as > 100 µM (inactive).

In the case of `O=C(CSc1ncnc2scc(-c3ccc(Cl)cc3)c12)NCc1ccc2c(c1)OCO2`, the IC50 [2] is reported as > 100 µM (inactive).

In the case of `COc1ccc(/C=N/N=C(/N)N[N+](=O)[O-])c(OC)c1`, the EC50 [5] is reported as > 112 µM (not active) and the EC50 [6] is reported as 2.39 µM (active).

With `O=C(NCCc1ccccn1)c1ccc(S(=O)(=O)N2CCCCCC2)cc1` the IC50 [2] was > 100 µM (inactive).

With `CC(C)OC(=O)c1nn2c(C(F)(F)F)cc(-c3ccc(Br)o3)nc2c1Br` the EC50 [3] was > 300 µM (not active) and the EC50 [4] was > 300 µM (not active).

With `CCCCn1c(SCC(=O)N2c3ccccc3CCc3ccccc32)nc2c1c(=O)n(C)c(=O)n2C` the EC50 [11] was > 120 µM (not active), the EC50 [12] was 14.2 µM (active) and the EC50 [13] was 15 µM (active).
